According to patent publication US20250197387A1, “BCL-XL DEGRADERS AND USES THEREOF” (Kymera Therapeutics, Inc., priority 2021, published 2025):

How the values were obtained:
Format in all cases: cell-based
[1] = system: MOLT-4 cells; experiment: CTG (CellTiter-Glo) cell viability assay, MOLT-4; conditions: Homo sapiens, MOLT-4, 72 h, 3 day incubation, read-out: CTG Cell Viability Assay - MOLT-4 3 day: Average external-IC50
Procedure, shortened: (§1)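 Nine-point 1:3 compound series topping at 10 μM (0.2% DMSO final) applied for 3 days to 10,000 MOLT-4 or Caki-2 cells per well, 37° C., 5% CO2. CellTiter-Glo luminescence read after 10 min at room temperature; three-parameter fit gave IC50.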

[2] = system: Caki-2 cells; experiment: CTG (CellTiter-Glo) cell viability assay, Caki-2; conditions: Homo sapiens, 72 h, 3 day incubation, read-out: CTG Chempartner - Caki-2 3 day: Average external-IC50
Procedure, shortened: as §1

[3] = target: T1, BCL-XL (Homo sapiens, UniProt Q07817); experiment: Bcl-xL ELISA degradation in MOLT-4 cells, 6 h; conditions: for DC50: read-out: Bcl-xL ELISA in MOLT-4 degradation 6 h: Mean external-Abs DC50
T1 construct: endogenous in cells; host or cells: MOLT-4
Protocol: The letter codes for BCL-XL DC50 include: A (<0.01 μM); B (0.01-0.1 μM); C (>[…]); D (>0.5-1.0 μM); and E (>1.0 μM). The letter codes for Dmax % include A (>75%); B (50 to 75%); C (<50%).

[4] = target: T1, BCL-XL; experiment: BCL-XL degradation assay, western blot in MOLT-4 cells, 16 h; conditions: western blot, MOLT-4 cells, 16 h; for Dmax: read-out: Bcl-xL WB in MOLT-4 degradation 16 h: Average Dmax %; for DC50: read-out: Bcl-xL WB in MOLT-4 degradation 16 h: Mean external-Abs DC50
Procedure, shortened: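 Infrared-imaged western blots quantified BCL-xL (normalised against beta-actin/GAPDH) after 16 hr, 37° C exposure of MOLT-4 cells to 0.02-10 μM compound; results given as DC50 and Dmax % bins.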

T1 sequence (Q07817 whole entry): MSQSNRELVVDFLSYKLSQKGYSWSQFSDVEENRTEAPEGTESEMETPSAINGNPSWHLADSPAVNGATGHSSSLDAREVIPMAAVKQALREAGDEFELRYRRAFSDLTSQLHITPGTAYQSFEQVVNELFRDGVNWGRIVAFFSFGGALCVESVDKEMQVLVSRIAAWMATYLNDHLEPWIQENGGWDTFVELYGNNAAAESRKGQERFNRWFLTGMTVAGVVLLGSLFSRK

| IC50 [1] [nM] | Dmax [3] [%] | DC50 [3] [nM] | Dmax [4] [%] | DC50 [4] [nM] | Structure (SMILES) | IC50 [2] [nM] |
| --- | --- | --- | --- | --- | --- | --- |
| < 100 | 50 to 75 | 10 to 100 | > 75 | < 10 | Cc1ncsc1-c1ccc(CNC(=O)[C@@H]2C[C@@H](O)CN2C(=O)[C@@H](NC(=O)C2(F)CC2)C(C)(C)C)c(OCCN2CCN(CC[C@H](CSc3ccccc3)Nc3ccc(S(=O)(=O)NC(=O)c4ccc(N5CCN(CC6=C(c7ccc(Cl)cc7)CCC(C)(C)C6)CC5)cc4)cc3S(=O)(=O)C(F)(F)F)CC2)c1 [I-394] | > 10000 |
| < 100 | < 50 | 10 to 100 | > 75 | < 10 | Cc1ncsc1-c1ccc([C@H](C)NC(=O)[C@@H]2C[C@@H](O)CN2C(=O)[C@@H](NC(=O)CCCCCCC(=O)N2CCN(CC3(C)CCC(c4ccc(Cl)cc4)=C(CN4CCN(c5ccc(C(=O)NS(=O)(=O)c6ccc(N[C@H](CCN7CCOCC7)CSc7ccccc7)c(S(=O)(=O)C(F)(F)F)c6)cc5)CC4)C3)CC2)C(C)(C)C)cc1 (stereo partly drawn) [I-395] | 100 to 1000 |
| < 100 | 50 to 75 | 10 to 100 | > 75 | < 10 | Cc1ncsc1-c1ccc([C@H](C)NC(=O)[C@@H]2C[C@@H](O)CN2C(=O)[C@@H](NC(=O)CCCCCCC(=O)N2CCN(C[C@]3(C)CCC(c4ccc(Cl)cc4)=C(CN4CCN(c5ccc(C(=O)NS(=O)(=O)c6ccc(N[C@H](CCN7CCOCC7)CSc7ccccc7)c(S(=O)(=O)C(F)(F)F)c6)cc5)CC4)C3)CC2)C(C)(C)C)cc1 [I-397] | 100 to 1000 |
